Assay results: patent EP0348560A1, “Oral composition” (LION CORPORATION, priority 1988, dated 1990)

Test system: Streptococcus mutans (strain 6715)
Assay: Incubation Adhesion Method: inhibition of dental plaque formation
Format: cell-based
Details: for Synergistic effect: class by inhibiting rate; for formation of dental plaque: combined with α-bisabolol, conclusion in words from Table 1
Procedure: α-Bisabolol, menthol, eugenol, 3-octanol, methyl salicylate, carvone and cineol are used as samples to evaluate their effects on inhibiting the formation of dental plaque by Incubation Adhesion Method.
Incubation Adhesion Method
A predetermined amount (0, 4 or 8 µg/mℓ) of α-bisabolol and 125 µg/mℓ of menthol, eugenol, 3-octanol, methyl salicylate, carvone or cineol were added to a BHI (brain heart infusion) medium containing 1% of sucrose. Then, Streptococcus mutans (strain 6715) was inoculated to the medium and incubated at 37°C for 16 hours under an anaerobic condition (N₂: CO₂ :H₂ = 80:10:10). After incubation, the resulting dental plaque was washed twice with water and dispersed in the same amount of 0.5-N NaOH solution. To determine the amount of dental plaque formed, the suspension of dental plaque was examined for absorbance (turbidity) at a wavelength of 550 nm.
Inhiviting rate of dental plaque formation (%) [formula] A : Absorbance (O.D. 550nm) of the control B : Absorbance (O.D. 550nm) of the sample

[1] = 125 µg/mℓ sample alone, content of α-bisabolol 0 µg/mℓ, BHI medium with 1% sucrose, 37°C, 16 hours, anaerobic
[2] = 125 µg/mℓ sample combined with α-bisabolol 4 µg/mℓ, BHI medium with 1% sucrose, 37°C, 16 hours, anaerobic
[3] = 125 µg/mℓ sample combined with α-bisabolol 4 µg/mℓ
[4] = 125 µg/mℓ sample combined with α-bisabolol 8 µg/mℓ, BHI medium with 1% sucrose, 37°C, 16 hours, anaerobic
[5] = 125 µg/mℓ sample combined with α-bisabolol 8 µg/mℓ
[6] = α-bisabolol 4 µg/mℓ alone (line 'Control', no sample added)
[7] = α-bisabolol 8 µg/mℓ alone (line 'Control', no sample added)

Molecule | Amount of dental plaque formation (O.D., 550nm) [1] [O.D.] | Inhibiting rate of dental plaque formation (%) [1] [%] | Amount of dental plaque formation (O.D., 550nm) [2] [O.D.] | Inhibiting rate of dental plaque formation (%) [2] [%] | Synergistic effect [3] | Amount of dental plaque formation (O.D., 550nm) [4] [O.D.] | Inhibiting rate of dental plaque formation (%) [4] [%] | Synergistic effect [5] | formation of dental plaque | Amount of dental plaque formation (O.D., 550nm) [6] [O.D.] | Inhibiting rate of dental plaque formation (%) [6] [%] | Amount of dental plaque formation (O.D., 550nm) [7] [O.D.] | Inhibiting rate of dental plaque formation (%) [7] [%]
CC12CCC(CC1)C(C)(C)O2 [Cineol, cineol, reference compound] | 0.62 | 0 | 0.59 | 4.8 | × (Inhibiting rate is less than 20%) | 0.53 | 14.5 | × (Inhibiting rate is less than 20%) | – | – | – | – | –
CC1CCC(C(C)C)C(O)C1 (stereo not shown) [Menthol, menthol] | 0.60 | 3.2 | 0.01 | 98.4 | ⓞ (Inhibiting rate is not less than 80%) | 0.01 | 98.4 | ⓞ (Inhibiting rate is not less than 80%) | synergistically suppressed | – | – | – | –
CCCCCC(O)CC (stereo not shown) [3-Octanol, 3-octanol] | 0.59 | 4.8 | 0.58 | 6.5 | × (Inhibiting rate is less than 20%) | 0.06 | 90.3 | ⓞ (Inhibiting rate is not less than 80%) | synergistically suppressed | – | – | – | –
COC(=O)c1ccccc1O [Methyl salicylate, methyl salicylate, reference compound] | 0.61 | 1.6 | 0.61 | 1.6 | × (Inhibiting rate is less than 20%) | 0.39 | 37.1 | Δ (Inhibiting rate is not less than 20%, less than 50 %) | – | – | – | – | –
C=C(C)C1CC=C(C)C(=O)C1 (stereo not shown) [Carvone, carvone, reference compound] | 0.62 | 0 | 0.60 | 3.2 | × (Inhibiting rate is less than 20%) | 0.42 | 32.3 | Δ (Inhibiting rate is not less than 20%, less than 50 %) | – | – | – | – | –
C=CCc1ccc(O)c(OC)c1 [Eugenol, eugenol] | 0.62 | 0 | 0.60 | 3.2 | × (Inhibiting rate is less than 20%) | 0.02 | 96.8 | ⓞ (Inhibiting rate is not less than 80%) | synergistically suppressed | – | – | – | –
α-bisabolol | – | – | – | – | – | – | – | – | – | 0.61 | 1.6 | 0.60 | 3.2
